The record followed here is patent US20130244999A1, “Substituted Heterocyclic Compounds” (Incyte Corporation, priority 2008, published 2013).

The test concerns the target T1, histamine H4 receptor (Homo sapiens, UniProt Q9H3N8).
T1 construct: expressed in transfected cells; host or cells: HEK293SFM cells (membrane preparation)
As to the kind of experiment: Inhibition of histamine H4 receptor (Table A1; H4 membrane binding assay). Particulars: for IC50: histamine H4 receptor, "> a" = exceeds experiment limit. A digest of the protocol:
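Membranes came from recombinant HEK293SFM cells expressing human H4, homogenized in 50 mM Tris-HCl pH 7.5 with protease inhibitors. Nonspecific binding was set with 1000× unlabeled ligand. Bound radioligand was separated on PEI-treated GF/B filters and counted by liquid scintillation.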

Molecules are shown by their SMILES.

T1 sequence (Q9H3N8 whole entry): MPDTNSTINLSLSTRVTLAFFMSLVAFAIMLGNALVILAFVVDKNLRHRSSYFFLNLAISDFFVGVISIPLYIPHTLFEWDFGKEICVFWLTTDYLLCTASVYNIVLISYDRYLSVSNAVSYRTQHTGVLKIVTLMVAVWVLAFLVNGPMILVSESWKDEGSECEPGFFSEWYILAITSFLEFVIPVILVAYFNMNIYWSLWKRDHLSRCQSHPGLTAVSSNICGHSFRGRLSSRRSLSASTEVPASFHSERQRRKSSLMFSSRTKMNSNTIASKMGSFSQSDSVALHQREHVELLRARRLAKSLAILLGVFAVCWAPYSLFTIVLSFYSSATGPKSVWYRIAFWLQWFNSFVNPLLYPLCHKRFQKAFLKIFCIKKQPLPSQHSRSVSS

`CC1Cc2ccc(-c3cnn(C4CCOCC4)c3)cc2CN1c1cc(N2CCN(C)CC2)nc(N)n1` (stereo not shown) [Example 95B, 4-(4-Methylpiperazin-1-yl)-6-[3-methyl-7-[1-(tetrahydro-2H-pyran-4-yl)-1H-pyrazol-4-yl]-3,4-dihydroisoquinolin-2(1H)-yl]pyrimidin-2-amine] returned an inhibition at 1 µM of 79%. Molecule `CC1Cc2ccc(-c3cnn(C4CCS(=O)(=O)C4)c3)cc2CN1c1cc(N2CCN(C)CC2)nc(N)n1` (stereo not shown) [Example 98B, 4-[7-[1-(1,1-dioxidotetrahydro-3-thienyl)-1H-pyrazol-4-yl]-3-methyl-3,4-dihydroisoquinolin-2(1H)-yl]-6-(4-methylpiperazin-1-yl)pyrimidin-2-amine] came in with an inhibition at 1 µM of 56%. In turn, `Cc1nc(-c2ccc3c(c2)CN(c2cc(N4CCN(C)CC4)nc(N)n2)C(C)C3)cs1` (stereo not shown) [Example 116, 4-[3-Methyl-7-(2-methyl-1,3-thiazol-4-yl)-3,4-dihydroisoquinolin-2(1H)-yl]-6-(4-methylpiperazin-1-yl)pyrimidin-2-amine] registered an IC50 of 0.02 µM.

`CCOc1nc(-c2ccc3c(c2)CN(c2cc(N4CCN(C)CC4)nc(N)n2)C(C)C3)cs1` (stereo not shown) [Example 117, 4-[7-(2-Ethoxy-1,3-thiazol-4-yl)-3-methyl-3,4-dihydroisoquinolin-2(1H)-yl]-6-(4-methylpiperazin-1-yl)pyrimidin-2-amine] returned an IC50 of 0.043 µM. This IC50 lies about 2.1-fold higher than the previous one. `CC1Cc2ccc(-c3cnn(C)c3)cc2CN1c1cc(N2CC[C@@H](N)C2)nc(N)n1` (stereo partly drawn) [Example 118, 4-[(3R)-3-Aminopyrrolidin-1-yl]-6-[3-methyl-7-(1-methyl-1H-pyrazol-4-yl)-3,4-dihydroisoquinolin-2(1H)-yl]pyrimidin-2-amine] returned an IC50 of 0.255 µM. This IC50 is about 5.9-fold higher than that of the molecule before. In turn, `CC1Cc2ccc(-c3cnn(C)c3)cc2CN1c1cc(N2CCC(N)CC2)nc(N)n1` (stereo not shown) [Example 120, 4-(4-Aminopiperidin-1-yl)-6-[3-methyl-7-(1-methyl-1H-pyrazol-4-yl)-3,4-dihydroisoquinolin-2 (1H)-yl]pyrimidin-2-amine] returned an IC50 of 0.04 µM. `CC1Cc2ccc(-c3cnn(C)c3)cc2CN1c1cc(N2CCNCC2)nc(N)n1` (stereo not shown) [Example 121, 4-[3-Methyl-7-(1-methyl-1H-pyrazol-4-yl)-3,4-dihydroisoquinolin-2 (1H)-yl]-6-piperazin-1-ylpyrimidin-2-amine] registered an IC50 of 0.024 µM. This IC50 lies about 1.7-fold lower than the previous one.

For the molecule `CC1Cc2ccc(-c3cnn(C)c3)cc2CN1c1cc(N2CCCNCC2)nc(N)n1` (stereo not shown) [Example 122, 4-(1,4-Diazepan-1-yl)-6-[3-methyl-7-(1-methyl-1H-pyrazol-4-yl)-3,4-dihydroisoquinolin-2(1H)-yl]pyrimidin-2-amine], the IC50 amounted to 0.051 µM. Still for that read-out and setting: for `CC1Cc2ccc(-c3cnn(C)c3)cc2CN1c1cc(N2CC3CC2CN3)nc(N)n1` (stereo not shown) [Example 123, 4-(2,5-Diazabicyclo[2.1.1]hept-2-yl)-6-[3-methyl-7-(1-methyl-1H-pyrazol-4-yl)-3,4-dihydroisoquinolin-2(1H)-yl]pyrimidin-2-amine] the value was 0.124 µM. Same read-out and setting: in the case of `CN[C@@H]1CCN(c2cc(N3Cc4cc(-c5cnn(C)c5)ccc4CC3C)nc(N)n2)C1` (stereo partly drawn) [Example 124, 4-[(3R)-3-(Methylamino)pyrrolidin-1-yl]-6-[3-methyl-7-(1-methyl-1H-pyrazol-4-yl)-3,4-dihydroisoquinolin-2(1H)-yl]pyrimidin-2-amine] it was 0.121 µM. Same read-out and setting: in the case of `CC1Cc2ccc(-c3cnn(C)c3)cc2CN1c1cc(N2CCCN(C)CC2)nc(N)n1` (stereo not shown) [Example 125, 4-(4-Methyl-1,4-diazepan-1-yl)-6-[3-methyl-7-(1-methyl-1H-pyrazol-4-yl)-3,4-dihydroisoquinolin-2(1H)-yl]pyrimidin-2-amine] it was 0.056 µM; in that of `CC1Cc2ccc(-c3cnn(C)c3)cc2CN1c1cc(N2CCN3CCCC3C2)nc(N)n1` (stereo not shown) [Example 126, 4-(Hexahydropyrrolo[1,2-a]pyrazin-2(1H)-yl)-6-[3-methyl-7-(1-methyl-1H-pyrazol-4-yl)-3,4-dihydroisoquinolin-2(1H)-yl]pyrimidin-2-amine], 0.066 µM.

Take `CNC(=O)c1ccc(-c2cc3c(cc2F)CCN(c2cc(N4CCN(C)CC4)nc(N)n2)C3)cn1` [Example 127, 5-{2-[2-Amino-6-(4-methylpiperazin-1-yl)pyrimidin-4-yl]-6-fluoro-1,2,3,4-tetrahydroisoquinolin-7-yl}-N-methylpyridine-2-carboxamide]: the IC50 was found to be 0.104 µM. Same read-out and setting: in the case of `CN1CCN(c2cc(N3CCc4cc(F)c(-c5cccc(C(=O)N(C)C)c5)cc4C3)nc(N)n2)CC1` [Example 128, 3-{2-[2-Amino-6-(4-methylpiperazin-1-yl)pyrimidin-4-yl]-6-fluoro-1,2,3,4-tetrahydroisoquinolin-7-yl}-N,N-dimethylbenzamide] it was 0.148 µM; in that of `CC1Cc2ccc(-c3ccc4c(c3)CN(C3CC3)C4=O)cc2CN1c1cc(N2CCN(C)CC2)nc(N)n1` (stereo not shown) [Example 129, 5-{2-[2-Amino-6-(4-methylpiperazin-1-yl)pyrimidin-4-yl]-3-methyl-1,2,3,4-tetrahydroisoquinolin-7-yl}-2-cyclopropylisoindolin-1-one], 0.112 µM.

In turn, `CNC(=O)c1ccc(-c2ccc3c(c2)CN(c2cc(N4CCN(C)CC4)nc(N)n2)C(C)C3)cc1C` (stereo not shown) [Example 130, 4-{2-[2-Amino-6-(4-methylpiperazin-1-yl)pyrimidin-4-yl]-3-methyl-1,2,3,4-tetrahydroisoquinolin-7-yl}-N,2-dimethylbenzamide] gave an IC50 of 0.069 µM. Against the preceding molecule, the IC50 is about 1.6-fold lower. Molecule `CC1Cc2ccc(-c3ccc4c(c3)NC(=O)CO4)cc2CN1c1cc(N2CCN(C)CC2)nc(N)n1` (stereo not shown) [Example 131, 6-{2-[2-amino-6-(4-methylpiperazin-1-yl)pyrimidin-4-yl]-3-methyl-1,2,3,4-tetrahydroisoquinolin-7-yl}-2H-1,4-benzoxazin-3(4H)-one] showed an IC50 of 0.03 µM. On the same count and under the same terms, in the case of `CC1Cc2ccc(-c3ccc4c(c3)N(C)C(=O)CO4)cc2CN1c1cc(N2CCN(C)CC2)nc(N)n1` (stereo not shown) [Example 132, 6-{2-[2-Amino-6-(4-methylpiperazin-1-yl)pyrimidin-4-yl]-3-methyl-1,2,3,4-tetrahydroisoquinolin-7-yl}-4-methyl-2H-1,4-benzoxazin-3(4H)-one] it was 0.039 µM.

For the molecule `CNC(=O)c1cnc(-c2ccc3c(c2)CN(c2cc(N4CCN(C)CC4)nc(N)n2)C(C)C3)s1` (stereo not shown) [Example 133, 2-{2-[2-amino-6-(4-methylpiperazin-1-yl)pyrimidin-4-yl]-3-methyl-1,2,3,4-tetrahydroisoquinolin-7-yl}-N-methyl-1,3-thiazole-5-carboxamide], the IC50 was 0.059 µM. Same read-out and setting: in the case of `CC1Cc2ccc(-c3ncc(C(=O)N(C)C)s3)cc2CN1c1cc(N2CCN(C)CC2)nc(N)n1` (stereo not shown) [Example 134, 2-{2-[2-Amino-6-(4-methylpiperazin-1-yl)pyrimidin-4-yl]-3-methyl-1,2,3,4-tetrahydroisoquinolin-7-yl}-N,N-dimethyl-1,3-thiazole-5-carboxamide] it was 0.038 µM; in that of `CC1Cc2ccc(-c3cnc4[nH]cnc4c3)cc2CN1c1cc(N2CCN(C)CC2)nc(N)n1` (stereo not shown) [Example 135, 4-[7-(3H-Imidazo[4,5-b]pyridin-6-yl)-3-methyl-3,4-dihydroisoquinolin-2(1H)-yl]-6-(4-methylpiperazin-1-yl)pyrimidin-2-amine], 0.048 µM.

As to `CC1Cc2ccc(C3=CCN(C(=O)NC4CCCC4)CC3)cc2CN1c1cc(N2CCN(C)CC2)nc(N)n1` (stereo not shown) [Example 136, 4-{2-[2-Amino-6-(4-methylpiperazin-1-yl)pyrimidin-4-yl]-3-methyl-1,2,3,4-tetrahydroisoquinolin-7-yl}-N-cyclopentyl-3,6-dihydropyridine-1(2H)-carboxamide], the IC50 is 0.068 µM. The IC50 values of the last two molecules are within 1.5-fold of each other.

`CC1Cc2ccc(C3=CCN(c4cc(C#N)ccn4)CC3)cc2CN1c1cc(N2CCN(C)CC2)nc(N)n1` (stereo not shown) [Example 137, 4-{2-[2-Amino-6-(4-methylpiperazin-1-yl)pyrimidin-4-yl]-3-methyl-1,2,3,4-tetrahydroisoquinolin-7-yl}-3,6-dihydro-2H-1,2′-bipyridine-4′-carbonitrile] returned an IC50 of 0.084 µM.

Molecule `CC1Cc2ccc(C3CCN(C(=O)CC4CCCC4)CC3)cc2CN1c1cc(N2CCN(C)CC2)nc(N)n1` (stereo not shown) [Example 138, 4-[7-[1-(Cyclopentylacetyl)piperidin-4-yl]-3-methyl-3,4-dihydroisoquinolin-2(1H)-yl]-6-(4-methylpiperazin-1-yl)pyrimidin-2-amine] showed an IC50 of 0.064 µM. `CC(C)OC(=O)N1CCC(c2ccc3c(c2)CN(c2cc(N4CCN(C)CC4)nc(N)n2)C(C)C3)CC1` (stereo not shown) [Example 139, Isopropyl 4-{2-[2-amino-6-(4-methylpiperazin-1-yl)pyrimidin-4-yl]-3-methyl-1,2,3,4-tetrahydroisoquinolin-7-yl}piperidine-1-carboxylate] gave an IC50 of 0.054 µM. The same measure, in the same setting: in the case of `CC(C)NC(=O)N1CCC(c2ccc3c(c2)CN(c2cc(N4CCN(C)CC4)nc(N)n2)C(C)C3)CC1` (stereo not shown) [Example 140, 4-{2-[2-Amino-6-(4-methylpiperazin-1-yl)pyrimidin-4-yl]-3-methyl-1,2,3,4-tetrahydroisoquinolin-7-yl}-N-isopropylpiperidine-1-carboxamide] it was 0.08 µM; in that of `CC1Cc2ccc(C3CCN(C(=O)N(C)C)CC3)cc2CN1c1cc(N2CCN(C)CC2)nc(N)n1` (stereo not shown) [Example 141, 4-{2-[2-Amino-6-(4-methylpiperazin-1-yl)pyrimidin-4-yl]-3-methyl-1,2,3,4-tetrahydroisoquinolin-7-yl}-N,N-dimethylpiperidine-1-carboxamide], 0.04 µM; in that of `CC1Cc2ccc(C3CCN(C(=O)N(C)C)CC3)cc2CN1c1cc(N2CCN(C)CC2)nc(N)n1` (stereo not shown) [Example 144, 4-{2-[2-Amino-6-(4-methylpiperazin-1-yl)pyrimidin-4-yl]-3-methyl-1,2,3,4-tetrahydroisoquinolin-7-yl}-N,N-dimethylpiperidine-1-carboxamide], 0.024 µM.
